Laboratory results reported in ChEMBL document CHEMBL5257025, “Artemisinin-Derived Dimers: Potent Antimalarial and Anticancer Agents” (J Med Chem, 2016).

Assays:
BT-474 = assay: Antiproliferative activity against human BT-474 cells assessed as reduction in cell growth measured after 72 hrs by MTT assay; type: functional, cell-based; conditions: BT-474, 72 h
HT-29 = assay: cells; conditions: Homo sapiens, HT-29, 72 h
EL4 = assay: Antiproliferative activity against mouse EL4 cells assessed as cell growth inhibition incubated for 72 hrs by MTT assay; type: functional, cell-based; conditions: EL4, 72 h
P388 = assay: Antiproliferative activity against mouse P388 cells assessed as cell growth inhibition incubated for 72 hrs by MTT assay; type: functional, cell-based; conditions: P388, 72 h
MCF7 = assay: Antiproliferative activity against human MCF7 cells assessed as reduction in cell viability measured after 48 hrs by SRB assay; type: functional, cell-based; conditions: MCF7, 48 h
BeWo = assay: Antiproliferative activity against human BeWo cells assessed as reduction in cell viability after 72 hrs by MTT assay; type: functional, cell-based
[1] = Cytotoxicity against African green monkey Vero cells; type: toxicity, cell-based; conditions: chlorocebus sabaeus, read-out: TC50 (the source's name)
[2] = Antiproliferative activity against human BC cells assessed as growth inhibition; type: functional, cell-based
KB = assay: Antiproliferative activity against human KB cells assessed as reduction in cell viability incubated for 48 hrs by MTT assay; type: functional, cell-based
Plasmodium falciparum [3] = assay: microbe, parasite or virus in culture; conditions: K1
Description: Antiplasmodial activity against Plasmodium falciparum K1 assessed as inhibition of parasitic growth

Plasmodium falciparum [4] = assay: Antimalarial activity against Plasmodium falciparum K1 assessed as inhibition of malarial growth; type: functional, organism-based
MDA-MB-231 = assay: Antiproliferative activity against human MDA-MB-231 cells assessed as reduction in cell viability measured after 48 hrs by MTT assay; type: functional, cell-based; conditions: MDA-MB-231, 48 h
Plasmodium falciparum [5] = assay: Antiplasmodial activity against Plasmodium falciparum NF54 assessed as reduction in malarial growth; type: functional, organism-based
HeLa = assay: Antiproliferative activity against human Hela cells assessed as cell growth inhibition measured after 48 hrs by MTT assay; type: functional, cell-based
[6] = Cytotoxicity against human HFF cells assessed as cell growth inhibition measured after 48 hrs by MTT assay; type: toxicity, cell-based
HCT-116 = assay: Antiproliferative activity against human HCT-116 cells assessed as growth after 48 hrs by MTT assay; type: functional, cell-based; conditions: HCT-116, 48 h
Plasmodium falciparum [7] = assay: Antimalarial activity against Plasmodium falciparum HB3 assessed as inhibition of malarial growth; type: functional, organism-based

## C[C@@H]1CC[C@H]2[C@@H](C)C(CC(CC3O[C@@H]4O[C@]5(C)CC[C@@H]6[C@@H](C)CC[C@H]([C@@H]3C)[C@]46OO5)C(=O)NN)O[C@H]3O[C@@]4(C)CC[C@@H]1[C@]32OO4 (some centres undefined)
BT-474
  IC50: 13 nM

## C[C@@H]1CC[C@H]2[C@@H](C)C(CCS(=O)(=O)CCCS(=O)(=O)CCC3O[C@@H]4O[C@]5(C)CC[C@@H]6[C@@H](C)CC[C@H]([C@@H]3C)[C@]46OO5)O[C@H]3O[C@@]4(C)CC[C@@H]1[C@]32OO4 (some centres undefined)
HT-29
  IC50: 500 nM
EL4
  IC50: 13100 nM
P388
  IC50: 11000 nM
MCF7
  IC50: 7360 nM
BeWo
  IC50: 11200 nM

## C[C@@H]1CC[C@H]2[C@H](C[C@]3(Cc4ccc(F)cc4)O[C@H]4O[C@@]5(C)CC[C@H]6[C@H](C)CC[C@@H]([C@H]3C)[C@@]46OO5)C(=O)O[C@H]3O[C@@]4(C)CC[C@@H]1[C@]32OO4
[1]
  CC50: 1100 nM
[2]
  IC50: 7400 nM
KB
  IC50: 7700 nM

## C[C@@H]1CC[C@H]2[C@@H](C)C(CCOC(=O)c3ccc(C(=O)OCCC4O[C@H]5O[C@@]6(C)CC[C@H]7[C@H](C)CC[C@@H]([C@H]4C)[C@@]57OO6)cc3)O[C@H]3O[C@@]4(C)CC[C@@H]1[C@]32OO4 (some centres undefined)
Plasmodium falciparum [3]
  IC50: 4.6 nM

## C[C@@H]1CC[C@H]2[C@@H](C)C(CSCCSCC3O[C@H]4O[C@@]5(C)CC[C@H]6[C@H](C)CC[C@@H]([C@H]3C)[C@@]46OO5)O[C@H]3O[C@@]4(C)CC[C@@H]1[C@]32OO4 (some centres undefined)
Plasmodium falciparum [3]
  IC50: 7.4 nM

## C[C@H]1[C@H](CCCCC[C@H]2O[C@H]3O[C@@]4(C)CC[C@H]5[C@H](C)CC[C@@H]([C@H]2C)[C@@]35OO4)O[C@H]2O[C@@]3(C)CC[C@H]4[C@H](C)CC[C@@H]1[C@@]24OO3
[1]
  CC50: 2800 nM
[2]
  IC50: 360 nM
KB
  IC50: 760 nM
Plasmodium falciparum [4]
  IC50: 0.91 nM

## C[C@H]1[C@@H](CCCCNC(=O)CC[C@H]2O[C@H]3O[C@@]4(C)CC[C@H]5[C@H](C)CC[C@@H]([C@H]2C)[C@@]35OO4)O[C@H]2O[C@@]3(C)CC[C@H]4[C@H](C)CC[C@@H]1[C@@]24OO3
HT-29
  IC50: 30500 nM
EL4
  IC50: > 30200 nM
P388
  IC50: > 30200 nM
MCF7
  IC50: > 30200 nM
BeWo
  IC50: > 30200 nM

## C[C@@H]1CC[C@H]2[C@@H](C)C(CSCCCCCSCC3O[C@@H]4O[C@]5(C)CC[C@@H]6[C@@H](C)CC[C@H]([C@@H]3C)[C@]46OO5)O[C@H]3O[C@@]4(C)CC[C@@H]1[C@]32OO4 (some centres undefined)
Plasmodium falciparum [3]
  IC50: 12 nM

## C[C@@H]1CC[C@H]2[C@@H](C)C(CSCCCCSC3O[C@H]4O[C@@]5(C)CC[C@H]6[C@H](C)CC[C@@H]([C@H]3C)[C@@]46OO5)O[C@H]3O[C@@]4(C)CC[C@@H]1[C@]32OO4 (some centres undefined)
Plasmodium falciparum [3]
  IC50: 5.7 nM

## CO[C@@]12[C@H](COC(N)=O)C3=C(C(=O)C(C)=C(N)C3=O)N1C[C@@H]1N[C@@H]12 [MITOMYCIN]
HT-29
  IC50: 60 nM
EL4
  IC50: 60 nM
P388
  IC50: 60 nM
MCF7
  IC50: 60 nM
BeWo
  IC50: 60 nM

## C[C@@H]1CC[C@H]2[C@@H](C)C(CC(CC3O[C@@H]4O[C@]5(C)CC[C@@H]6[C@@H](C)CC[C@H]([C@@H]3C)[C@]46OO5)CN3CCN(C)CC3)O[C@H]3O[C@@]4(C)CC[C@@H]1[C@]32OO4 (some centres undefined)
MDA-MB-231
  IC50: 3300 nM
BT-474
  IC50: 110 nM

## C[C@@H]1CC[C@H]2[C@@H](C)C(CCNC(=O)CCC(N)C(=O)NCCC3O[C@H]4O[C@@]5(C)CC[C@H]6[C@H](C)CC[C@@H]([C@H]3C)[C@@]46OO5)O[C@H]3O[C@@]4(C)CC[C@@H]1[C@]32OO4 (some centres undefined)
HT-29
  IC50: 8900 nM
EL4
  IC50: 22500 nM
P388
  IC50: 21300 nM
MCF7
  IC50: 20900 nM
BeWo
  IC50: > 27300 nM

## C[C@@H]1CC[C@H]2[C@H](C[C@]3(CCCCc4ccccc4)O[C@H]4O[C@@]5(C)CC[C@H]6[C@H](C)CC[C@@H]([C@H]3C)[C@@]46OO5)C(=O)O[C@H]3O[C@@]4(C)CC[C@@H]1[C@]32OO4
[1]
  CC50: 2400 nM
Plasmodium falciparum [5]
  IC50: 3.4 nM
[2]
  IC50: 1200 nM
KB
  IC50: 5700 nM

## C[C@@H]1CC[C@H]2[C@@H](C)C(CC(COP(=O)(O)Oc3ccccc3)CC3O[C@@H]4O[C@]5(C)CC[C@@H]6[C@@H](C)CC[C@H]([C@@H]3C)[C@]46OO5)O[C@H]3O[C@@]4(C)CC[C@@H]1[C@]32OO4 (some centres undefined)
HeLa
  IC50: 18600 nM
[6]
  IC50 at 48 h: 56500 nM
HCT-116
  IC50: 6670 nM

## C[C@@H]1CC[C@H]2[C@H](C[C@]3(Cc4cccc(F)c4)O[C@H]4O[C@@]5(C)CC[C@H]6[C@H](C)CC[C@@H]([C@H]3C)[C@@]46OO5)C(=O)O[C@H]3O[C@@]4(C)CC[C@@H]1[C@]32OO4
[1]
  CC50: 5500 nM
[2]
  IC50: 3500 nM
KB
  IC50: 4000 nM

## CCCCC[C@@]1(C[C@@H]2C(=O)O[C@H]3O[C@@]4(C)CC[C@H]5[C@H](C)CC[C@@H]2[C@@]35OO4)O[C@H]2O[C@@]3(C)CC[C@H]4[C@H](C)CC[C@@H]([C@H]1C)[C@@]24OO3
[1]
  CC50: 63000 nM
[2]
  IC50: 36000 nM
KB
  IC50: 23000 nM

## C[C@@H]1CC[C@H]2[C@@H](C)C(CCOC(=O)c3ccccc3C(=O)OCCC3O[C@H]4O[C@@]5(C)CC[C@H]6[C@H](C)CC[C@@H]([C@H]3C)[C@@]46OO5)O[C@H]3O[C@@]4(C)CC[C@@H]1[C@]32OO4 (some centres undefined)
Plasmodium falciparum [7]
  IC50: 1.6 nM
Plasmodium falciparum [4]
  IC50: 2.6 nM

## C[C@@H]1CC[C@H]2[C@@H](C)C(CCOC(=O)c3cccc(C(=O)OCCC4O[C@H]5O[C@@]6(C)CC[C@H]7[C@H](C)CC[C@@H]([C@H]4C)[C@@]57OO6)c3)O[C@H]3O[C@@]4(C)CC[C@@H]1[C@]32OO4 (some centres undefined)
Plasmodium falciparum [3]
  IC50: 42.2 nM

## C[C@@H]1CC[C@H]2[C@@H](C)C(CSCCCSCC3O[C@H]4O[C@@]5(C)CC[C@H]6[C@H](C)CC[C@@H]([C@H]3C)[C@@]46OO5)O[C@H]3O[C@@]4(C)CC[C@@H]1[C@]32OO4 (some centres undefined)
Plasmodium falciparum [3]
  IC50: 13 nM

## CC(=O)N1CCN(CC(CC2O[C@@H]3O[C@]4(C)CC[C@@H]5[C@@H](C)CC[C@H]([C@@H]2C)[C@]35OO4)CC2O[C@H]3O[C@@]4(C)CC[C@H]5[C@H](C)CC[C@@H]([C@H]2C)[C@@]35OO4)CC1 (some centres undefined)
MDA-MB-231
  IC50: 8000 nM
BT-474
  IC50: 60 nM

## C[C@@H]1CC[C@H]2[C@@H](C)C(CCOCc3cccc(COCCC4O[C@H]5O[C@@]6(C)CC[C@H]7[C@H](C)CC[C@@H]([C@H]4C)[C@@]57OO6)c3)O[C@H]3O[C@@]4(C)CC[C@@H]1[C@]32OO4 (some centres undefined)
Plasmodium falciparum [7]
  IC50: 2.1 nM
Plasmodium falciparum [4]
  IC50: 2.7 nM

## C[C@@H]1CC[C@H]2[C@@H](C)C(CC(CC3O[C@@H]4O[C@]5(C)CC[C@@H]6[C@@H](C)CC[C@H]([C@@H]3C)[C@]46OO5)CN3CCN(c4cccnc4)CC3)O[C@H]3O[C@@]4(C)CC[C@@H]1[C@]32OO4 (some centres undefined)
MDA-MB-231
  IC50: 10000 nM
BT-474
  IC50: 70 nM

## C[C@H]1[C@@H](CCNC(=O)CC[C@H]2O[C@H]3O[C@@]4(C)CC[C@H]5[C@H](C)CC[C@@H]([C@H]2C)[C@@]35OO4)O[C@H]2O[C@@]3(C)CC[C@H]4[C@H](C)CC[C@@H]1[C@@]24OO3
HT-29
  IC50: 1100 nM
EL4
  IC50: 10100 nM
P388
  IC50: 16800 nM
MCF7
  IC50: 8 nM
BeWo
  IC50: 12100 nM

## C[C@@H]1CC[C@H]2[C@@H](C)C(CC(CC3O[C@@H]4O[C@]5(C)CC[C@@H]6[C@@H](C)CC[C@H]([C@@H]3C)[C@]46OO5)CN3CCN(c4ccccn4)CC3)O[C@H]3O[C@@]4(C)CC[C@@H]1[C@]32OO4 (some centres undefined)
MDA-MB-231
  IC50: 5000 nM
BT-474
  IC50: 22 nM

## C[C@@H]1CC[C@H]2[C@@H](C)C(CCOC(=O)CCC(=O)OCCC3O[C@H]4O[C@@]5(C)CC[C@H]6[C@H](C)CC[C@@H]([C@H]3C)[C@@]46OO5)O[C@H]3O[C@@]4(C)CC[C@@H]1[C@]32OO4 (some centres undefined)
Plasmodium falciparum [7]
  IC50: 1.4 nM
Plasmodium falciparum [4]
  IC50: 1.8 nM

## C[C@H]1[C@H](CCCC[C@H]2O[C@H]3O[C@@]4(C)CC[C@H]5[C@H](C)CC[C@@H]([C@H]2C)[C@@]35OO4)O[C@H]2O[C@@]3(C)CC[C@H]4[C@H](C)CC[C@@H]1[C@@]24OO3
[1]
  CC50: 10000 nM
[2]
  IC50: 1600 nM
KB
  IC50: 1800 nM
Plasmodium falciparum [4]
  IC50: 1.4 nM

## C[C@@H]1CC[C@H]2[C@@H](C)C(CCOCc3ccccc3COCCC3O[C@H]4O[C@@]5(C)CC[C@H]6[C@H](C)CC[C@@H]([C@H]3C)[C@@]46OO5)O[C@H]3O[C@@]4(C)CC[C@@H]1[C@]32OO4 (some centres undefined)
Plasmodium falciparum [7]
  IC50: 1.3 nM
Plasmodium falciparum [4]
  IC50: 2.9 nM

## C[C@@H]1CC[C@H]2[C@@H](C)C(CCOC(=O)CCCC(=O)OCCC3O[C@H]4O[C@@]5(C)CC[C@H]6[C@H](C)CC[C@@H]([C@H]3C)[C@@]46OO5)O[C@H]3O[C@@]4(C)CC[C@@H]1[C@]32OO4 (some centres undefined)
Plasmodium falciparum [7]
  IC50: 1.1 nM
Plasmodium falciparum [4]
  IC50: 2.4 nM

## C[C@@H]1CC[C@H]2[C@@H](C)C(CCS(=O)(=O)CCC3O[C@@H]4O[C@]5(C)CC[C@@H]6[C@@H](C)CC[C@H]([C@@H]3C)[C@]46OO5)O[C@H]3O[C@@]4(C)CC[C@@H]1[C@]32OO4 (some centres undefined)
HT-29
  IC50: 580 nM
EL4
  IC50: 820 nM
P388
  IC50: 8550 nM
MCF7
  IC50: 40 nM
BeWo
  IC50: 1590 nM
